For the first test, the target named is T1, Pol theta (1-899) (Homo sapiens, UniProt O75417).
T1 construct: Pol theta (1-899) (5 nM) in assay buffer
T1 sequence (O75417 1-899): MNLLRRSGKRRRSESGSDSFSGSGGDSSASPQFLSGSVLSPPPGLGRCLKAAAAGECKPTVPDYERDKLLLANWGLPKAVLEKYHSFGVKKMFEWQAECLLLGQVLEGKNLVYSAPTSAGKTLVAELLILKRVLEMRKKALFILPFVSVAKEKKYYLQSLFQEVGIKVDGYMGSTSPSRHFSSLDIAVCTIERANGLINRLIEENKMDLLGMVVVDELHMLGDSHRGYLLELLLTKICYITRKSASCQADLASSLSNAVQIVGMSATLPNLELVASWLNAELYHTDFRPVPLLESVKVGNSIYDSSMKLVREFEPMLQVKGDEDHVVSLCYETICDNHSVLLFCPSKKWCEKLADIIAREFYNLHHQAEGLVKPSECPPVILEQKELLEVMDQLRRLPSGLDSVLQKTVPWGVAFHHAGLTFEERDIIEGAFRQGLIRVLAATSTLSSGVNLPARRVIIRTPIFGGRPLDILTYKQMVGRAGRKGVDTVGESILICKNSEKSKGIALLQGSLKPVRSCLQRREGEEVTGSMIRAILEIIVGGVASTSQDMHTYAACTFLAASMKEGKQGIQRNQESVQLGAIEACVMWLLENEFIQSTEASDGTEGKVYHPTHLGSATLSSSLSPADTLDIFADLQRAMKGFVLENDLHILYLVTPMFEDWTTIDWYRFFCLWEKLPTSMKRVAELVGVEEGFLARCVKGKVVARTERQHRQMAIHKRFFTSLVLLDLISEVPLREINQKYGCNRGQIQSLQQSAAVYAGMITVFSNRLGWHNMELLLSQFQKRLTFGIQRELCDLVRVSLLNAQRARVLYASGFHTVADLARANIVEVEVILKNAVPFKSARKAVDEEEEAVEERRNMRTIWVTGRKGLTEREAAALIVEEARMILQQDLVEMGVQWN
The test can be described thus: Pol theta ATPase activity, NADH oxidation-coupled enzymatic assay (ATPase NADH coupling: Standard Screening: hPolQ). The test is classed as biochemical. The note with it: Pol theta (1-899) 5 nM, NADH oxidation-coupled ATPase assay; compounds of Table 3. The procedure:
The ability of the compounds of Formula (I) or Table 1 to inhibit ATPase activity of Pol theta (1-899) was determined using the assay described below. Pol Theta ATPase activity was determined by measuring the rate of ATP turn over in a NADH oxidation-coupled enzymatic assay. 10-point dilution series of compounds were used in a 384 well format for the inhibition assays. Pol theta (1-899) (5 nM) in assay buffer (20 mM Tris HCl (pH 7.80), 80 mM KCl, 10 mM MgCl2, 1 mM DTT, 0.01% BSA, 0.01% Tween, 5% glycerol) was transferred to the test wells (20 μL), except the low control wells (20 μL of assay buffer was added to the low control wells). The plate was then incubated at room temperature for 15 min. An equal volume (20 μL) of 100 μM ATP, 300 nM […] (single-stranded DNA (ssDNA) containing 50 thymine bases), 300 μM NADH, 6 mM PEP, 10 U/mL lactate dehydrogenase and 20 U/mL pyruvate kinase in assay buffer was added to all the test wells. The plate was then centrifuged at 1000 rpm for 1 min. The reaction was monitored for 60 min by measuring absorbance (λ=340 nm) in a Tecan Spark multimode plate reader every minute. The high control (DMSO with enzyme) with low absorbance intensity represents no inhibition of ATPase reaction while the low control (DMSO with buffer) with high absorbance intensity represents full inhibition of ATPase activity. Slope of the reaction progress curves were used to calculate the rate of ATP hydrolysis. The rates were used to determine the percent inhibition using a four-parameter inhibition model to generate IC50, Hill slope and max inhibition.
As to `COc1cnc(Cl)cc1-c1cc(C)ncc1C(=O)Nc1nnc(O[C@H]2CN3CCC2CC3)s1` [Example 306, (R)-2′-chloro-5′-methoxy-6-methyl-N-(5-(quinuclidin-3-yloxy)-1,3,4-thiadiazol-2-yl)-[4,4′-bipyridine]-3-carboxamide], the IC50 is 1000 to 10000 nM.

Compound `COc1nnc(NC(=O)c2cnc(C)cc2-c2cnc(C#N)nc2)s1` [Example 444, 4-(2-cyanopyrimidin-5-yl)-N-(5-methoxy-1,3,4-thiadiazol-2-yl)-6-methylnicotinamide] gave an IC50 of 1000 to 10000 nM.

`COc1nnc(NC(=O)c2cnc(C)cc2-c2ccc(S(C)(=O)=O)nc2)s1` [Example 455, N-(5-methoxy-1,3,4-thiadiazol-2-yl)-6′-methyl-6-(methylsulfonyl)-[3,4′-bipyridine]-3′-carboxamide]: the IC50 was 1000 to 10000 nM.

For `COc1nnc(NC(=O)c2cnc(C)cc2-c2ccc(F)c(F)c2C)s1` [Example 475, 4-(3,4-difluoro-2-methylphenyl)-N-(5-methoxy-1,3,4-thiadiazol-2-yl)-6-methylpyridine-3-carboxamide], the IC50 lay within 500 to 1000 nM.

The compound `CC[S@@+]([O-])c1cc(OC)c(-c2cc(C)ncc2C(=O)Nc2nnc(OC)s2)cc1Cl` (single isomer, unassigned) [Example 313] came in with an IC50 of no more than 200 nM.

`COc1nnc(NC(=O)c2cnc(C)cc2-c2ccc(OC(F)(F)F)cc2)s1` [Example 376, N-(5-methoxy-1,3,4-thiadiazol-2-yl)-6-methyl-4-[4-(trifluoromethoxy)phenyl]pyridine-3-carboxamide] displayed an IC50 of 1000 to 10000 nM.

With `COc1cnc(C)cc1-c1cc(C)ncc1C(=O)Nc1nnc(OC2CC=CC2)s1` [Example 240, N-(5-(cyclopent-3-en-1-yloxy)-1,3,4-thiadiazol-2-yl)-5′-methoxy-2′,6-dimethyl-[4,4′-bipyridine]-3-carboxamide], the IC50 was no more than 200 nM.

Consider `COc1nnc(NC(=O)c2cnc(C)cc2-c2cc(C#N)cc(OC(F)(F)F)c2)s1` [Example 327, 4-[3-cyano-5-(trifluoromethoxy)phenyl]-N-(5-methoxy-1,3,4-thiadiazol-2-yl)-6-methylpyridine-3-carboxamide], for which the IC50 fell in the range of 1000 to 10000 nM.

Compound `COc1nnc(NC(=O)c2cnc(C)cc2-c2cnc(N(C)C)nc2)s1` [Example 458, 4-(2-(dimethylamino)pyrimidin-5-yl)-N-(5-methoxy-1,3,4-thiadiazol-2-yl)-6-methylnicotinamide] had an IC50 of 1000 to 10000 nM.

In turn, `COc1nnc(NC(=O)c2cnc(C)cc2-c2ccc3ccccc3c2)s1` [Example 363, N-(5-methoxy-1,3,4-thiadiazol-2-yl)-6-methyl-4-(naphthalen-2-yl)pyridine-3-carboxamide] gave an IC50 of 500 to 1000 nM.

On to `COc1nnc(NC(=O)c2cnc(C)cc2-c2csc3cnccc23)s1` [Example 425, N-(5-methoxy-1,3,4-thiadiazol-2-yl)-6-methyl-4-{thieno[2,3-c]pyridin-3-yl}pyridine-3-carboxamide], for which the 50% inhibitory concentration (IC50) was in the range of 500 to 1000 nM.

The compound `COc1nnc(NC(=O)c2cnc(C)cc2-c2cc(F)cnc2OC)s1` [Example 431, 5-fluoro-2-methoxy-N-(5-methoxy-1,3,4-thiadiazol-2-yl)-6′-methyl-[3,4′-bipyridine]-3′-carboxamide] had an IC50 of 500 to 1000 nM.

In the case of `COc1nnc(NC(=O)c2cnc(C)cc2-c2cccc(CC(N)=O)c2)s1` [Example 472, 4-[3-(carbamoylmethyl)phenyl]-N-(5-methoxy-1,3,4-thiadiazol-2-yl)-6-methylpyridine-3-carboxamide], the IC50 lay in the range of 1000 to 10000 nM.

Compound `COc1nnc(NC(=O)c2cnc(C)cc2-c2cccc(S(N)(=O)=O)c2)s1` [Example 385, N-(5-methoxy-1,3,4-thiadiazol-2-yl)-6-methyl-4-(3-sulfamoylphenyl)pyridine-3-carboxamide] showed a half-inhibitory concentration (IC50) of 1000 to 10000 nM.

Regarding `COc1cnc(C)cc1-c1cc(C)ncc1C(=O)Nc1nnc(O[C@H]2COC[C@@H]2OC(C)C)s1` [Example 246], the IC50 was no more than 200 nM.

The compound `COc1nnc(NC(=O)c2cnc(C)cc2-c2cnc3ccccc3c2)s1` [Example 394, N-(5-methoxy-1,3,4-thiadiazol-2-yl)-6-methyl-4-(quinolin-3-yl)pyridine-3-carboxamide] gave an IC50 of 1000 to 10000 nM.

`COc1nnc(NC(=O)c2nnc(C)cc2-c2cc(Cl)ncc2OC)s1` [Example 294, 4-(2-chloro-5-methoxypyridin-4-yl)-N-(5-methoxy-1,3,4-thiadiazol-2-yl)-6-methylpyridazine-3-carboxamide] displayed an IC50 of 200 to 500 nM.

In turn, `COc1nnc(NC(=O)c2cnc(C)cc2-c2ccc3cn(C)nc3c2)s1` [Example 417, N-(5-methoxy-1,3,4-thiadiazol-2-yl)-6-methyl-4-(2-methyl-2H-indazol-6-yl)nicotinamide] displayed an IC50 of 1000 to 10000 nM.

As to `COc1nnc(NC(=O)c2cnc(C)cc2-c2cc(Cl)c(S(C)(=O)=O)cc2OC)s1` [Example 272, 4-(5-chloro-2-methoxy-4-(methylsulfonyl)phenyl)-N-(5-methoxy-1,3,4-thiadiazol-2-yl)-6-methylnicotinamide], the IC50 is no more than 200 nM.

`COc1nnc(NC(=O)c2cnc(C)cc2-c2ccc(C)c(C)c2)s1` [Example 381, 4-(3,4-dimethylphenyl)-N-(5-methoxy-1,3,4-thiadiazol-2-yl)-6-methylpyridine-3-carboxamide] registered an IC50 of 1000 to 10000 nM.

`COc1nnc(NC(=O)c2cnc(C)cc2-c2coc3ccccc23)s1` [Example 436, 4-(1-benzofuran-3-yl)-N-(5-methoxy-1,3,4-thiadiazol-2-yl)-6-methylpyridine-3-carboxamide] registered an IC50 of 1000 to 10000 nM.

Still in this test, the particulars now being: Table 4; Pol theta (1-899) 5 nM, ATP, dT50 ssDNA.
Compound `COc1nnc(NC(=O)c2cnc(C)cc2-c2cc(Cl)ccc2OC(F)F)s1` [Example 33, 4-(5-chloro-2-(difluoromethoxy)phenyl)-N-(5-methoxy-1,3,4-thiadiazol-2-yl)-6-methylnicotinamide] had an IC50 of no more than 200 nM.

`C#CCOc1nnc(NC(=O)c2ccncc2-c2ccccc2OC)s1` [Example 1, 3-(2-methoxyphenyl)-N-(5-(prop-2-yn-1-yloxy)-1,3,4-thiadiazol-2-yl)isonicotinamide] returned a concentration for half-maximal inhibition (IC50) of no more than 200 nM.

`COc1nnc(NC(=O)c2cnc(C)cc2-c2cc(C)ncc2OC)s1` [Example 8] showed an IC50 of no more than 200 nM.

`COc1cccc(F)c1-c1cc(C)ncc1C(=O)Nc1nnc(OCC(C)(C)C(F)(F)F)s1` [Example 4, 4-(2-fluoro-6-methoxyphenyl)-6-methyl-N-(5-(3,3,3-trifluoro-2,2-dimethylpropoxy)-1,3,4-thiadiazol-2-yl)pyridine-3-carboxamide] yielded an IC50 of 200 to 500 nM.

The test is the same for the next values; noted with them: Table 5; Pol theta (1-899) 5 nM, ATP, dT50 ssDNA.
`COc1cnc(Cl)cc1-c1cc(C)ncc1C(=O)Nc1nnc(O[C@@H]2CCC23COC3)s1` (single isomer, unassigned) [Example 137] gave an IC50 of no more than 200 nM.

For `COc1cnc(Cl)cc1-c1cc(C)ncc1C(=O)Nc1nnc(O[C@@H]2CCC[C@](C)(O)C2)s1` (single isomer, unassigned) [Example 180], the IC50 fell in the range of 200 to 500 nM.

Regarding `COc1cnc(Cl)cc1-c1cc(C)ncc1C(=O)Nc1nnc(O[C@H]2CCO[C@@H]2C)s1` (single isomer, unassigned) [Example 115], the IC50 was no more than 200 nM.

`COc1cnc(Cl)cc1-c1cc(C2CCCC2)ncc1C(=O)Nc1nnc(O[C@@H]2CCOC2)s1` [Example 134, (R)-2′-chloro-6-cyclopentyl-5′-methoxy-N-(5-((tetrahydrofuran-3-yl)oxy)-1,3,4-thiadiazol-2-yl)-(4,4′-bipyridine)-3-carboxamide]: the IC50 is 500 to 1000 nM.

Turning to `COc1cnc(Br)cc1-c1cc(C)ncc1C(=O)Nc1nnc(O[C@@H]2CCOC2)s1` [Example 84], the 50% inhibitory concentration (IC50) is no more than 200 nM.

`COc1cnc(Cl)cc1-c1cc(C)ncc1C(=O)Nc1nnc(O[C@H]2CO[C@H](C)C2)s1` (single isomer, unassigned) [Example 192] gave an IC50 of no more than 200 nM.

With `COc1cnc(Cl)cc1-c1cc(C)ncc1C(=O)Nc1nnc(O[C@H]2CC[C@@H]([C@H](C)O)CC2)s1` (single isomer, unassigned) [Example 213], the 50% inhibitory concentration (IC50) was no more than 200 nM.

In turn, `COCc1cc(-c2cc(Cl)ncc2OC)c(C(=O)Nc2nnc(OC)s2)cn1` [Example 158, 2′-chloro-5′-methoxy-N-(5-methoxy-1,3,4-thiadiazol-2-yl)-6-(methoxymethyl)-(4,4′-bipyridine)-3-carboxamide] gave an IC50 of no more than 200 nM.

For `COc1cnc(Cl)cc1-c1cc(C)ncc1C(=O)Nc1nnc(OC2CC3(COC3)C2)s1` [Example 135, N-(5-((2-oxaspiro (3.3)heptan-6-yl)oxy)-1,3,4-thiadiazol-2-yl)-2′-chloro-5′-methoxy-6-methyl-(4,4′-bipyridine)-3-carboxamide], the IC50 is no more than 200 nM.

With `COc1cnc(Cl)c(F)c1-c1cc(C)ncc1C(=O)Nc1nnc(O[C@@H]2CC[C@@H](O)C2)s1` (single isomer, unassigned) [Example 198], the IC50 is no more than 200 nM.

These data come from patent US20240287080A1 (IDEAYA Biosciences Inc., priority 2021, published 2024).
